Experimental data from US20150158914A1, “PEPTIDES, CONSTRUCTS AND USES THEREFOR” (priority 2010, published 2015).
Entries after “also recorded” stand apart in the source; their conditions may differ. Where two headings read alike, the source gives them in different places. Ends that are not written are not given here. * marks the point of attachment. FITC = O=C1OC2(c3ccc(O)cc3Oc3cc(O)ccc32)c2ccc(NC(=S)*)cc21; Biotin = O=C1N[C@H]2[C@H](CS[C@H]2CCCCC(=O)*)N1; Acp = not defined here

Columns and labels:
mutated B-Raf = mutated B-Raf (Homo sapiens, UniProt P15056, V600E); conditions: in vivo; cited from earlier work
WM-266-4 melanoma cells [1] = test: Apoptosis by anti-B-raf antibody delivered with the carrier peptide (Annexin-V fluos); type: cell-based; conditions: 1 μg/ml, 3 h
Experimental: The carrier peptide-rabbit anti-B-raf antibody conjugate (1 μg/ml), the unconjugated carrier peptide and unconjugated anti-B-raf antibody (1 μg/ml) were added to WM-266-4 melanoma cells, and cell apoptosis was assessed after 3 h by addition of Annexin-V fluos, with visualization by fluorescence microscopy. Untreated cells were included as an additional control. Cell nuclei were stained with DAPI. The results were merged to illustrate the numbers of cells that underwent apoptosis compared with the total number of cells ie the proportion of cells that underwent apoptosis.

X-protein = test: Western blot of X-protein in transfected HepG2 cells treated with X-protein-degradation domain fusion peptides; type: cell-based, hepatitis B virus; conditions: HepG2 transfected with pCDNA3.1-HBX or pCDNA3-HBX Myc; 10 μM peptide at 3 h, 24 h and 48 h post transfection
Experimental: HepG2 cells were seeded into 6 well plates at 1×10^6 cells per well in MEM medium supplemented with 10% FCS, and cultured overnight at 37° and 5% CO2. No PSG antibiotic was added to the medium as it can interfere with transfection efficiency. The medium was then removed and replaced with MEM medium without 10% FCS. The amount of DNA used for transfection was 4 μg. Firstly, 4 μg of DNA was mixed with 250 μl of Opti-MEM medium, and then 4 μl of polymag transfection reagent was added. The mixture was incubated for 20 min and then added to the cells. The plate was placed onto a magnetic plate on a rotating platform for 20 min.
Cell-permeable X-protein-degradation domain fusion peptides were added at a concentration of 10 μM to the cells in MEM without 10% FCS and cells incubated for 45 h. […] An additional 10 μM of peptide was added after 3 h of incubation, and a further 10 μM of peptide was added after 21 h incubation. When the additional aliquots of peptide were added, the cells were washed in MEM without FCS, the peptides added, and the cells incubated for 3 h before changing the medium to MEM containing 10% FCS and PSG. The cells were lysed and analyzed by Western blot analysis for expression of the X-proteins.
Cells were washed with PBS, and detached from plates by incubation with trypsin diluted in PBS. Cells were washed with MEM containing FCS to inactivate trypsin, and pelleted by centrifugation at 175 g for 5 min. They were then resuspended in 1 ml of PBS, and a 10 μl sample was removed, stained with Trypan blue, and cell number counted with a haemocytometer. The cells were then pelleted at 4,000 g for 5 min and thrice washed in PBS. All traces of liquid were removed and the cells were ready for cell lysis. Complete Lysis Buffer was added to the cells at 20 μl per 1×10^6 cells. The cells were resuspended very well to aid lysis and then left on ice for 10 min. They were centrifuged at 15,000 g for 10 min, and the supernatant collected and saved. The nuclear precipitate was processed by adding 13 μl of lysis buffer, 2 μl of 2% SDS, 2 μl of Na deoxycholate, 2 μl of DNAse buffer and 1 μl of DNAse I. The sticky cell lysate was resuspended vigorously after each reagent was added then incubated at 37° for 10 min.
The two X-protein-ODD fusion peptides were tested for their ability to decrease the level of X-protein expression. HepG2 cells were transfected with 4 μg of either the X-protein plasmids pCDNA3.1-HBX and pCDNA3-HBX Myc, or 4 μg of the pCDNA3-GFP vector. The X-protein-ODD fusion peptides were repetitively added to the cells at 3 h, 24 h and 48 h post transfection. Control transfectants were not treated with peptide, but were otherwise cultured under the same conditions. Transfectants were subjected to Western blotting to determine whether the X-protein was expressed. […]

C32 melanoma cells = conditions: C32, 10 μM, 3 h
Experimental: (§1) The melanoma cell lines WM-266-4 and C32 were seeded into 8-well chamber slides at 1×10^5 cells per well in full MEM media and incubated at 37° C. and 5% CO2 overnight. The next day the cells were washed thrice with serum-free MEM, resuspended in 500 μl of the same medium, and added to the wells. […] Annexin-V labelling solution was prepared by adding 20 μl of Annexin V labelling reagent and 10 μl of propidium iodide in 1 ml of incubation buffer. The cells were washed with incubation buffer, and 100 μl of Annexin-V labelling solution was added, followed by incubation for 15 min in the dark. The cells were washed with incubation buffer, fixed with 4% formaldehyde in PBS for 30 min, washed with PBS and slide chambers removed. A drop of Prolong Gold anti-fade reagent with DAPI was added to each sample, the slides dried overnight, and then examined by fluorescence microscopy.

WM-266-4 melanoma cells [2] = conditions: WM-266-4, 20 μM, 3 h
Experimental: as §1

HepG2 cells = test: Assay for cell permeability of X-protein peptides (fluorescence and confocal microscopy); type: cell-based, human; conditions: for uptake by HepG2 cells (cell permeability): FITC-labelled peptide 10 μM, 3 h, medium without FCS; for intracellular distribution (confocal slicing): FITC-labelled peptide, HepG2 cells
Experimental: The cells were then incubated overnight at 37° and 5% CO2, and then washed thrice with media without FCS. The X-protein peptide in 250 μl of appropriate media without FCS was added to the cells at a final concentration of 10 μM, and the slides incubated for 3 h at 37° C. and 5% CO2. The cells were washed with PBS, fixed with 4% formaldahyde in PBS for 30 min, and washed thrice with PBS. […] The slides were dried overnight in the dark, and examined by microscopy by using a Nikon E600 fluorescent microscope. Photos were taken using Nikon ACT-1 software. For further examination, slides were then examined by confocal microscopy using a Leica TCS-SP2 confocal microscope.

[3] = target: T1, X-protein N-terminal peptide 1-50 (Hepatitis B virus genotype C subtype adr, UniProt Q81163, DEL44-44/P38S/S41A/S42F/V5L); test: Peptide binding assay: FITC-peptides on peptide 1-50-coated plates; conditions: FITC-peptide at 10, 20, 40 μg/ml, 30 min
T1 construct: The parent peptide containing aa 1-50 conjugated N-terminally to a biotin tag; purchased; host or cells: chemical synthesis
Experimental: Qligomerization peptides were received in powdered form, and were weighed and diluted in a sterile 10% DMSO solution to make a 10 mg/ml stock solution. The wells of a Reactibind neutravidin-coated 96 well plate (Thermoscientific cat #15507) were thrice washed with 200 μl of plate washing buffer. Peptide 1-50, which contains a biotin tag, was diluted to 10 μg/ml in wash buffer and 100 μl of the solution was placed into each well being used. The plate was incubated at room temperature for 2 h, and the wells washed thrice with 200 μl of wash buffer. Truncated fluorescent variants of peptide 1-50 at 40 μg/ml, 20 μg/ml, and 10 μg/ml were added to the wells in triplicate, and the plates incubated at room temperature for 30 min. The wells were then washed thrice with 200 μl of wash buffer under low light conditions, and the plate read on a Biotek fluorescent plate reader at an excitation wavelength of 490 nm and an emission wavelength of 520 nm.
A ligand-binding assay was performed using streptavidin-coated plates in order to define the minimum peptide motif needed for dimerization of the X-protein. In this scenario the X-protein monomer serves as its own ligand. […] A series of short peptides from the region encoding aa 1-50 were synthesized. The parent peptide containing aa 1-50 conjugated N-terminally to a biotin tag was added to the streptavidin coated plates. […] Non-biotinylated peptides encoding aa 1-20, 16-35, 21-40 and 34-53 were added at 10, 20, and 40 μg/ml to the wells coated with peptide aa 1-50. The smaller peptides were each conjugated to a FITC tag for detection using a fluorescent plate reader. […] Binding performed with lesser concentrations of the peptides was not significant. Even smaller peptides encompassing that region 16-35 were made to determine whether the aa 16-35 was the minimum peptide motif needed for X-protein dimerization. These peptides synthesized, namely aa 16-26, 16-24, and 16-22 were analyzed using the same peptide binding assay. […] Thus of the peptides examined, the minimal peptide motif needed for dimerization of the X-protein is the […] peptide 16-35.

[4] = system: TK-1 T cells adherent to MAdCAM-1; test: Carriage of a foreign peptide into TK-1 cells; type: cell-based; conditions: 50 μM, 30 min, streptavidin-FITC detection
Experimental: Eight-well glass chamber slides were coated overnight at 4° C. with MAdCAM-1-Fc. They were blocked with FCS at RT for 2 h. TK-1 T cells were activated with 2 mM Mn2+/Ca2+ in HBSS buffer and added to MAdCAM-1 coated glass slides, followed by incubation for 15 min. Peptides […] (SEQ ID NO 15) and R9YDRREY (SEQ ID NO 14) were added at 50 μM followed by incubation for 30 min. The cells were fixed overnight in 4% PFA, permeabilised with PBS+0.1% Tween 20 for 15 min, blocked with 3% BSA in PBS for 1 h, and the presence of the peptides detected with FITC-Streptavidin (1:200 dilution in 3% BSA in PBS 1 h). Slides were mounted with Prolong gold with DAPI.
The X-protein cell-permeable peptide LCLRPVG (SEQ ID NO: 2) was fused to the hexapeptide YDRREY (SEQ ID NO 16) taken from the cytoplasmic domain of the human integrin β7 subunit. The peptides were separated by a glycine linker, and a biotin tag was added N-terminally. The fusion peptide was compared with the YDRREY (SEQ ID NO 16) peptide fused to an R9 (SEQ ID NO: 145) carrier peptide for its ability to enter TK-1 T cells adherent to MAdCAM-1.

[5] = listed as biotin-RRRRRRRRHKLVRSPAPCKFFTSAGGLNVTAPTPQQLQAFKNEVGVLRK

Chain of mutated B-Raf (P15056 whole entry V600E): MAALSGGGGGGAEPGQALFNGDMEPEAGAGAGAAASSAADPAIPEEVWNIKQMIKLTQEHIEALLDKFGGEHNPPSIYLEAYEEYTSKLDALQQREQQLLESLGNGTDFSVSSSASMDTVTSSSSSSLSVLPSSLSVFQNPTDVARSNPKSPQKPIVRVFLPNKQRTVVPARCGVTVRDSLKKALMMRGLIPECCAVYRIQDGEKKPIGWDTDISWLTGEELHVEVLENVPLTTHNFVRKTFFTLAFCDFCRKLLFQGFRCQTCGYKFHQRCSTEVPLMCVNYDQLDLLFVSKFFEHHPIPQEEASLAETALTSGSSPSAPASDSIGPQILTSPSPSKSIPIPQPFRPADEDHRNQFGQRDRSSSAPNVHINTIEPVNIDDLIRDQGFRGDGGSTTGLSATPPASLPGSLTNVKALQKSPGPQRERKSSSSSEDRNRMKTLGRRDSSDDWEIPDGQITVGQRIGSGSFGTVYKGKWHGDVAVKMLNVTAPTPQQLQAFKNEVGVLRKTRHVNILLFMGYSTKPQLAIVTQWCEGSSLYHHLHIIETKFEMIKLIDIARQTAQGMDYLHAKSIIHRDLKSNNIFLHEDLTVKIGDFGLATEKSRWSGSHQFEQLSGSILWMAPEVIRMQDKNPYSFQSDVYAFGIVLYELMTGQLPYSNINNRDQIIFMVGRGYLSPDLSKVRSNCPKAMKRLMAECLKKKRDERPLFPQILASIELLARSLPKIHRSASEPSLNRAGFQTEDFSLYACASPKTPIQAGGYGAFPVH

Molecule: CCCS(=O)(=O)Nc1ccc(F)c(C(=O)c2c[nH]c3ncc(-c4ccc(Cl)cc4)cc23)c1F [PLX4032]
- patients with regression of melanomas (mutated B-Raf): 80 % of patients

Molecule: Biotin-LCLRPVGGGRRRQQQQQQRRR
- cell apoptosis (WM-266-4 melanoma cells [1]): no detectable effect

Molecule: Biotin-RRRRRRRRHKLVRSPAPCKFFTSAGGLCLRPVGAESRGRPVSGPFG (cysteine pairing not given here)
- degradation of the X-protein (Western blot, nuclear fraction) (X-protein): complete degradation of the X-protein

Molecule: Biotin-RRRRRRRRHKLVRSPAPCKFFTSAGGLNVTAPTPQQLQAFKNEVGVLRK [B-Raf targeting peptide]
- tumour cell death / apoptosis (C32 melanoma cells): killed the melanoma cells
- tumour cell death / apoptosis (C32 melanoma cells; [5]): led to tumour cell death
- tumour cell death / apoptosis (WM-266-4 melanoma cells [2]): killed the melanoma cells
- tumour cell death / apoptosis (WM-266-4 melanoma cells [2]; [5]): led to tumour cell death

Molecule: Biotin-RRRRRRRRLCLRPVGAESRGRPVSGPFGGCRHKLVRSPAPCKFFTSA (cysteine pairing not given here)
- degradation of the X-protein (Western blot, nuclear fraction) (X-protein): near complete degradation of the X-protein, with slight preference for the full length protein

Molecule: FITC-Acp-FGPLSSPAFSVPADHGAHLS ({FITC-Acp}-FGPLSSPAFSVPADHGAHLS; reading uncertain; also: printed as FITC-Acp-FGPLSSPAFSVPADHGAHLS) [Peptide 34-53]
- uptake by HepG2 cells (cell permeability) (HepG2 cells): not cell-permeable

Molecule: FITC-Acp-MAARLCCQLDPARDVLCLRP [Peptide 1-20]
- uptake by HepG2 cells (cell permeability) (HepG2 cells; listed as aa 1-20): cell-permeable; also recorded: readily taken up by the cells
- intracellular distribution (confocal slicing) (HepG2 cells): taken up into the cell cytoplasm, as well as into the nucleus

Molecule: FITC-Acp-RRRRRRRRLCLRPVGAESRGRPVSGPFGGMLAPYIPM
- degradation of the X-protein (Western blot, nuclear fraction) (X-protein): near complete degradation of the X-protein

Molecule: FITC-Acp-RRRRRRRRMLAPYIPMGGLCLRPVGAESRGRPVSGPFG
- degradation of the X-protein (Western blot, nuclear fraction) (X-protein): complete degradation of the X-protein

Molecule: FITC-Acp-VGAESRGRPVSGPFGPLSSP ({FITC-Acp}-VGAESRGRPVSGPFGPLSSP; reading uncertain; also: printed as FITC-Acp-VGAESRGRPVSGPFGPLSSP) [Peptide 21-40]
- binding to peptide 1-50 (fluorescence) [3]: failed to appreciably bind peptide 1-50
- uptake by HepG2 cells (cell permeability) (HepG2 cells): not cell-permeable

Molecule: FITC-LCLRP ({FITC}-LCLRP) [Peptide 16-20]
- uptake by HepG2 cells (cell permeability) (HepG2 cells; listed as aa 16-20): cell-permeable; also recorded: taken up into the cells

Molecule: FITC-LCLRPVGAE ({FITC}-LCLRPVGAE) [Peptide 16-24]
- binding to peptide 1-50 (fluorescence) [3]: could not match the strong binding shown by the parental peptide 16-35
- uptake by HepG2 cells (cell permeability) (HepG2 cells; listed as aa 16-24): cell-permeable, being taken up by cells at a level equivalent to that of the parental peptide aa 16-35

Molecule: FITC-LCLRPVGAESR ({FITC}-LCLRPVGAESR) [Peptide 16-26]
- binding to peptide 1-50 (fluorescence) [3]: could not match the strong binding shown by the parental peptide 16-35
- uptake by HepG2 cells (cell permeability) (HepG2 cells; listed as aa 16-26): cell-permeable, being taken up by cells at a level equivalent to that of the parental peptide aa 16-35

Molecule: LCLRPVGAESRGRPV [Peptide 16-30]
- binding to peptide 1-50 (fluorescence) [3]: binds to the X-protein N-terminal peptide 1-50; also recorded: bound peptide 1-50 even more strongly than peptide 16-35

Molecule: LCLRPVGGYDRREY (Biotin-LCLRPVGGYDRREY) [biotinylated LCLRPVG fused via glycine linker to β7 integrin hexapeptide YDRREY]
- uptake of biotinylated fusion peptide into TK-1 cells [4]: uniformly taken up in similar amounts by all cells

Molecule: MAARLCCQ (cysteine pairing not given here; also: fluorescein label, position not given here) [Peptide 1-8]
- uptake by HepG2 cells (cell permeability) (HepG2 cells): cell-permeable

Molecule: MAARLCCQLDPARDV [Peptide 1-15]
- uptake by HepG2 cells (cell permeability) (HepG2 cells; listed as aa 1-15): cell-permeable; also recorded: taken up into the cells
- intracellular distribution (confocal slicing) (HepG2 cells): taken up into the cytoplasm and nucleus

Molecule: R9YDRREY (RRRRRRRRRYDRREY; not fully specified (N-terminus); also: biotin, position not given here) [Peptide R9YDRREY, biotinylated YDRREY peptide fused to an R9 carrier peptide, reference compound]
- uptake of biotinylated fusion peptide into TK-1 cells [4]: entered all the cells
